Laboratory results: publication PMC7413254 (Nature Communications, 2020)

Tests used:
PfCRT^Dd2 [1] = molecular target: T1, PfCRT^Dd2 (Plasmodium falciparum, UniProt Q9N623, A220S/I356T/K76T/M74I/N326S/N75E/Q271E/R371I); experiment: cell-based; assay type: cell-based; settings: PfCRTDd2; mean ± SEM, n = 5; SEM
Method in brief: (§1)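 Transport measured in Xenopus oocytes expressing the transporters, 1.5 h at 27.5 °C in ND96 pH 5.5 unless noted. For trans-stimulation, VF-6 injected in 25 nL ND96 at pH 5.0–7.0 or Na^+-free (choline) buffer; intracellular levels based on ~400 nL oocyte volume. Ten oocytes per treatment, ≥4 experiments.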

PfNT1 = molecular target: T2, PfNT1 (Plasmodium falciparum, UniProt Q8IDM6); experiment: cell-based; assay type: cell-based; settings: trans-stimulation, solute 45 mM injected (estimated intracellular)
T2 construct: expressed in transfected cells; host or cells: Xenopus laevis oocytes (stage V-VI), cRNA-injected
Method in brief: as §1

PfCRT^Ecu1110 = PfCRT^Ecu1110 (Plasmodium falciparum, UniProt Q9N623, A220S/I356L/K76T/N326D); experiment: cell-based; assay type: cell-based; settings: PfCRTEcu1110; mean ± SEM, n = 5; SEM
Method in brief: as §1

PfCRT^3D7 = PfCRT^3D7 (Plasmodium falciparum, UniProt Q8IBZ9); experiment: cell-based; assay type: cell-based; settings: for [3H]CQ transport, PfCRT3D7 (% PfCRT3D7 control): trans-stimulation, solute 45 mM injected (estimated intracellular)
Method in brief: as §1

PfCRT^Dd2 [2] = molecular target: T1, PfCRT^Dd2; experiment: [3H]CQ uptake into Xenopus oocytes, cis-inhibition by unlabelled solute; assay type: cell-based; settings: PfCRTEcu1110 and PfCRTDd2
Method in brief: (§2)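 Oocytes expressing PfCRT isoforms, or non-expressing controls, were incubated 1.5 h at 27.5 °C in ND96 buffer pH 5.5 (96 mM NaCl, 2 mM KCl, 1 mM MgCl2, 1.8 mM CaCl2, 10 mM MES, 10 mM Tris-base), measuring uptake from acidic medium into cytosol. Oocytes were washed ice-cold, SDS-lysed and counted by scintillation.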

non-expressing oocytes = experiment: cells; assay type: cell-based, Xenopus laevis
Method in brief: as §2

Chain of PfCRT^3D7 (Q8IBZ9 59-398): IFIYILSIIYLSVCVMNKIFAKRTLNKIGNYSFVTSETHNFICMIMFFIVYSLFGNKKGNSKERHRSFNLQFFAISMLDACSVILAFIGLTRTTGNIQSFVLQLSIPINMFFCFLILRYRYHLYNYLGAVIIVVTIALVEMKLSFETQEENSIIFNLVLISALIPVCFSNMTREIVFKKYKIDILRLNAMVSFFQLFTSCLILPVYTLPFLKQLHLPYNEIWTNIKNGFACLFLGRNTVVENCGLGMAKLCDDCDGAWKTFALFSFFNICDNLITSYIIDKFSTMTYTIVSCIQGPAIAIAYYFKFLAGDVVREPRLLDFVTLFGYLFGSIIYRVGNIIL
T2 sequence (Q8IDM6 whole entry): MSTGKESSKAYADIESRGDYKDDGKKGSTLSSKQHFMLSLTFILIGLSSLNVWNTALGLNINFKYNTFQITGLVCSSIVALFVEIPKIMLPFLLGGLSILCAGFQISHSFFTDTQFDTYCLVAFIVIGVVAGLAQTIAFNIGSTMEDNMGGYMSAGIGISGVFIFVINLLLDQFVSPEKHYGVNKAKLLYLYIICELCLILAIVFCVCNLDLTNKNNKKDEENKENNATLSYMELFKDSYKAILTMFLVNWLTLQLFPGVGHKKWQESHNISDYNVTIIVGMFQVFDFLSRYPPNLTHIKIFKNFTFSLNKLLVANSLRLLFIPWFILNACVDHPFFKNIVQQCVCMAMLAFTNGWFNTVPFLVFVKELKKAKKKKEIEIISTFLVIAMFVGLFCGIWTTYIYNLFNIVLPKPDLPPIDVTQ
T1 sequence (Q9N623 whole entry A220S/I356T/K76T/M74I/N326S/N75E/Q271E/R371I): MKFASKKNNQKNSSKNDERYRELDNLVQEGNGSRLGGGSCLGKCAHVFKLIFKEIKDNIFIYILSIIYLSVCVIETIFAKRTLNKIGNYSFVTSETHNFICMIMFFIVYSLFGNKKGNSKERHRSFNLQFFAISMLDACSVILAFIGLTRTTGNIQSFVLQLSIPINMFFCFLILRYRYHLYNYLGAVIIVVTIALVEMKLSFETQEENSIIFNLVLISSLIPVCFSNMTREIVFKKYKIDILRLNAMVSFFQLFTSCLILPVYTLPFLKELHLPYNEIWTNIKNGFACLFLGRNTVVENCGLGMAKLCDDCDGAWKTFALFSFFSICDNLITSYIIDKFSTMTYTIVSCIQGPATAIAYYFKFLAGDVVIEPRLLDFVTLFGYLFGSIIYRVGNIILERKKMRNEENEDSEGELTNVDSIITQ
Chain of PfCRT^Ecu1110 (Q9N623 whole entry A220S/I356L/K76T/N326D): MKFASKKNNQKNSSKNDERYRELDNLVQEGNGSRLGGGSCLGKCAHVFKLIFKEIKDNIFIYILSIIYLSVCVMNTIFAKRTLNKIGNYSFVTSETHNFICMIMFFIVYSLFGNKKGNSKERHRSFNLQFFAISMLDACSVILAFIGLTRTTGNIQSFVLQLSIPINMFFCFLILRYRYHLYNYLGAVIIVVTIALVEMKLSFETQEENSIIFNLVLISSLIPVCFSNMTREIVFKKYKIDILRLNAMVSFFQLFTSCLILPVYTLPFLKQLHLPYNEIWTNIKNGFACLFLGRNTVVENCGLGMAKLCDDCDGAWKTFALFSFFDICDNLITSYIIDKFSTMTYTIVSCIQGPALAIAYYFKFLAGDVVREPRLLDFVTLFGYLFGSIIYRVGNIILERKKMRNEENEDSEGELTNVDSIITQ

## CC(C)(C)NC(=O)[C@@H]1C[C@@H]2CCCC[C@@H]2CN1C[C@@H](O)[C@H](Cc1ccccc1)NC(=O)[C@H](CC(N)=O)NC(=O)c1ccc2ccccc2n1 [Saquinavir, saquinavir, reference compound]
PfCRT^Dd2 [1]
  App Vmax for the trans-stimulatory effect of the peptide mimic on [3H]CQ transport: 0.8 ±0.05 pmol/oocyte/h
PfNT1; Experiment 1
  [3H]CQ transport, PfNT1 (% PfCRTDd2 control): 2.62 % PfCRTDd2 control
PfNT1; Experiment 2
  [3H]CQ transport, PfNT1 (% PfCRTDd2 control): 2.47 % PfCRTDd2 control
PfNT1; Experiment 3
  [3H]CQ transport, PfNT1 (% PfCRTDd2 control): 2.54 % PfCRTDd2 control
PfNT1; Experiment 4
  [3H]CQ transport, PfNT1 (% PfCRTDd2 control): 2.32 % PfCRTDd2 control
PfCRT^Ecu1110
  App Vmax for the trans-stimulatory effect of the peptide mimic on [3H]CQ transport: 1.6 ±0.2 pmol/oocyte/h
PfCRT^3D7; PfCRT3D7, mean ± SEM, n = 5, SEM
  App Vmax for the trans-stimulatory effect of the peptide mimic on [3H]CQ transport: 2.2 ±0.5 pmol/oocyte/h
PfCRT^3D7; PfCRT isoforms as stated in the sentence
  Trans-stimulation of [3H]CQ transport via PfCRT (in words): trans-stimulated
PfCRT^3D7; Experiment 1
  [3H]CQ transport, PfCRT3D7 (% PfCRT3D7 control): 157.43 % PfCRT3D7 control
PfCRT^3D7; Experiment 2
  [3H]CQ transport, PfCRT3D7 (% PfCRT3D7 control): 162.15 % PfCRT3D7 control
PfCRT^3D7; Experiment 3
  [3H]CQ transport, PfCRT3D7 (% PfCRT3D7 control): 143.46 % PfCRT3D7 control
PfCRT^3D7; Experiment 4
  [3H]CQ transport, PfCRT3D7 (% PfCRT3D7 control): 158.34 % PfCRT3D7 control
PfCRT^Dd2 [2]
  Cis-inhibition of [3H]CQ transport (in words): cis-inhibited

## CCN(CC)CCCC(C)Nc1ccnc2cc(Cl)ccc12 (stereo not shown) [CQ, chloroquine, reference compound]
non-expressing oocytes; 0 mM Ca2+, Experiment 1
  [3H]CQ transport, non-expressing oocytes: 3.74 % PfCRTDd2 control
non-expressing oocytes; 0 mM Ca2+, Experiment 2
  [3H]CQ transport, non-expressing oocytes: 3.63 % PfCRTDd2 control
non-expressing oocytes; 0 mM Ca2+, Experiment 3
  [3H]CQ transport, non-expressing oocytes: 4.25 % PfCRTDd2 control
non-expressing oocytes; 0 mM Ca2+, Experiment 4
  [3H]CQ transport, non-expressing oocytes: 3.26 % PfCRTDd2 control
non-expressing oocytes; 0 mM Cl-, Experiment 1
  [3H]CQ transport, non-expressing oocytes: 4.15 % PfCRTDd2 control
non-expressing oocytes; 0 mM Cl-, Experiment 2
  [3H]CQ transport, non-expressing oocytes: 3.26 % PfCRTDd2 control
non-expressing oocytes; 0 mM Cl-, Experiment 3
  [3H]CQ transport, non-expressing oocytes: 3.11 % PfCRTDd2 control
non-expressing oocytes; 0 mM Cl-, Experiment 4
  [3H]CQ transport, non-expressing oocytes: 3.85 % PfCRTDd2 control
non-expressing oocytes; 0 mM Na+, Experiment 1
  [3H]CQ transport, non-expressing oocytes: 3.84 % PfCRTDd2 control
non-expressing oocytes; 0 mM Na+, Experiment 2
  [3H]CQ transport, non-expressing oocytes: 3.27 % PfCRTDd2 control
non-expressing oocytes; 0 mM Na+, Experiment 3
  [3H]CQ transport, non-expressing oocytes: 3.36 % PfCRTDd2 control
non-expressing oocytes; 0 mM Na+, Experiment 4
  [3H]CQ transport, non-expressing oocytes: 3.51 % PfCRTDd2 control
non-expressing oocytes; 1 mM Ca2+, Experiment 1
  [3H]CQ transport, non-expressing oocytes: 3.79 % PfCRTDd2 control
non-expressing oocytes; 1 mM Ca2+, Experiment 2
  [3H]CQ transport, non-expressing oocytes: 4.21 % PfCRTDd2 control
non-expressing oocytes; 1 mM Ca2+, Experiment 3
  [3H]CQ transport, non-expressing oocytes: 3.27 % PfCRTDd2 control
non-expressing oocytes; 1 mM Ca2+, Experiment 4
  [3H]CQ transport, non-expressing oocytes: 3.32 % PfCRTDd2 control
non-expressing oocytes; 3 mM Ca2+, Experiment 1
  [3H]CQ transport, non-expressing oocytes: 3.39 % PfCRTDd2 control
non-expressing oocytes; 3 mM Ca2+, Experiment 2
  [3H]CQ transport, non-expressing oocytes: 3.63 % PfCRTDd2 control
non-expressing oocytes; 3 mM Ca2+, Experiment 3
  [3H]CQ transport, non-expressing oocytes: 3.89 % PfCRTDd2 control
non-expressing oocytes; 3 mM Ca2+, Experiment 4
  [3H]CQ transport, non-expressing oocytes: 3.96 % PfCRTDd2 control
non-expressing oocytes; 5 mM Ca2+, Experiment 1
  [3H]CQ transport, non-expressing oocytes: 3.68 % PfCRTDd2 control
non-expressing oocytes; 5 mM Ca2+, Experiment 2
  [3H]CQ transport, non-expressing oocytes: 3.26 % PfCRTDd2 control
non-expressing oocytes; 5 mM Ca2+, Experiment 3
  [3H]CQ transport, non-expressing oocytes: 3.94 % PfCRTDd2 control
non-expressing oocytes; 5 mM Ca2+, Experiment 4
  [3H]CQ transport, non-expressing oocytes: 3.67 % PfCRTDd2 control
non-expressing oocytes; Control, Experiment 1, Supp Fig. 2b
  [3H]CQ transport, non-expressing oocytes: 3.53 % PfCRTDd2 control
non-expressing oocytes; Control, Experiment 1, Supp Fig. 2f
  [3H]CQ transport, non-expressing oocytes: 3.93 % PfCRTDd2 control
non-expressing oocytes; Control, Experiment 1, Supp Fig. 2d
  [3H]CQ transport, non-expressing oocytes: 3.52 % PfCRTDd2 control
non-expressing oocytes; Control, Experiment 2, Supp Fig. 2b
  [3H]CQ transport, non-expressing oocytes: 3.62 % PfCRTDd2 control
non-expressing oocytes; Control, Experiment 2, Supp Fig. 2f
  [3H]CQ transport, non-expressing oocytes: 3.26 % PfCRTDd2 control
non-expressing oocytes; Control, Experiment 2, Supp Fig. 2d
  [3H]CQ transport, non-expressing oocytes: 3.16 % PfCRTDd2 control
non-expressing oocytes; Control, Experiment 3, Supp Fig. 2b
  [3H]CQ transport, non-expressing oocytes: 3.28 % PfCRTDd2 control
non-expressing oocytes; Control, Experiment 3, Supp Fig. 2f
  [3H]CQ transport, non-expressing oocytes: 3.29 % PfCRTDd2 control
non-expressing oocytes; Control, Experiment 3, Supp Fig. 2d
  [3H]CQ transport, non-expressing oocytes: 3.75 % PfCRTDd2 control
non-expressing oocytes; Control, Experiment 4, Supp Fig. 2b
  [3H]CQ transport, non-expressing oocytes: 3.81 % PfCRTDd2 control
non-expressing oocytes; Control, Experiment 4, Supp Fig. 2f
  [3H]CQ transport, non-expressing oocytes: 4.38 % PfCRTDd2 control
non-expressing oocytes; Control, Experiment 4, Supp Fig. 2d
  [3H]CQ transport, non-expressing oocytes: 3.21 % PfCRTDd2 control
